Measurements from patent publication US8158605B2, “Azacytidine analogues and uses thereof” (Mount Sinai School of Medicine, priority 2007, dated 2012).

Key:
Format in all cases: cell-based
[1] = test system: Jurkat; assay: WST-1 cytotoxicity assay; settings: Homo sapiens
Method: (§1) Human promyelocytic leukemia cell lines HL60, human histiocytic lymphoma U937, human chronic myelogenous leukemia K562, human acute T cell Jurkat, breast adenocarcinoma MCF-7, urinary bladder carcinoma 5637, prostate carcinoma DU-145 were purchased from American Type Culture Collection. All cell lines except Jurkat were maintained in RPMI 1640 medium (Gibco, Glasgow, UK) supplemented with 10% heat-inactivated fetal calf serum (FCS), 100 U/ml of penicillin, and […] streptomycin, in an atmosphere of 5% CO2 at 37° C. Jurkat cells were cultured in RPMI 1640 medium supplemented with 1.5 g/L sodium bicarbonate, 4.5 g/L glucose, 10 mM sodium pyruvate, and 10% FCS, 100 U/ml of penicillin, and […] streptomycin.
(§2) MCF-7, DU-145, and 5637 cells (1×10^4/ml) were plated and allowed to adhere and spread for 24 hours. […] Cultures were incubated with WST-1 reagent for 1 hour. The production of formazan was measured by a microplate reader (Bio-Tek Instruments, Elx 800) at 450 nm with a reference wavelength of 650 nm. Growth inhibition was determined as compared to untreated cells (%). IC50 values were calculated using CalcuSyn software (Biosoft).

[2] = test system: MCF-7; assay: WST-1 cytotoxicity assay; settings: Homo sapiens, MCF7
Method: as §1, §2

[3] = test system: K562; assay: WST-1 cytotoxicity assay; settings: Homo sapiens
Method: as §1, §2

[4] = test system: DU145; assay: WST-1 cytotoxicity assay; settings: Homo sapiens, DU-145
Method: as §1, §2

[5] = test system: HL60; assay: WST-1 cytotoxicity assay; settings: Homo sapiens, HL-60
Method: as §1, §2

[6] = test system: 5637; assay: WST-1 cytotoxicity assay
Method: as §1, §2

[7] = test system: U937; assay: WST-1 cytotoxicity assay; settings: Homo sapiens, U-937
Method: as §1, §2

[8] = test system: cell cycle; assay: Cell cycle analysis of DNA contents by flow cytometry
Method: Cells were pelleted by centrifugation, and washed twice with PBS, fixed with 70% (v/v) cold ethanol (−20° C.), and stored at 4° C. for at least 24 hours. The cells were washed in PBS. Cell pellets were stained with PI/RNase staining solution. The cell suspension was incubated in the dark at room temperature for 30 min. DNA content was determined using a FACSCalibur flow cytometry (Becton Dickinson, Mount View, Calif.). Percentages of cells in Sub-G1, G1, S and G2/M stages of the cell cycle were determined with DNA histogram-fitting program (Becton Dickinson). A minimum of 10,000 events per sample was recorded.
Cells were cultured for the indicated lengths of time before being processed for analyses of DNA contents by flow cytometry. Numerical values in a panel represent gated cell population with sub-G1 DNA contents. The most significant changes were observed after 24 hours of treatment.

[9] = test system: estrogen receptor beta; assay: Gene expression of estrogen receptor β by real-time PCR in MCF-7 cells; settings: MCF-7, 1 μM, 5 days
Method: The gene expression (determined on RNA level) of estrogen receptor beta was determined by quantitative real-time PCR. (TaqMan). MCF-7 mammary carcinoma cells were grown in estrogen deficient media (Phenol-Red-free RPMI with 2% glutamine and 10% charcoal-dextran treated fetal calf serum). […] One untreated control was included as control. The cells were harvested after 5 days of exposure to the compounds; they were harvested by trypsination, washed and shock frozen in liquid nitrogen.
The total RNA was extracted from approximately 10^6 shock frozen MCF-7 cells. The RNA concentration and purity was measured, and RNA was transcribed into cDNA using TaqMan Reverse Trancription reagents (N808-0234). Real-time quantification was performed using standard protocols and premixed PCR reagents. The primer-probe mixes were ordered from Applied Biosystems, ER β (ID Hs00230957_ml) and housekeeping gene hydrocylmethyl-bilane synthase HMBS (ID Hs00609297_ml). Gene expression was calculated using the comparative delta-delta Ct method.

CCCCCCCC/C=C/CCCCCCCC(=O)OC[C@H]1O[C@@H](n2cnc(N)nc2=O)[C@H](O)[C@@H]1O [CP, 5-azacytidine 5′-elaidate]
IC50 ([1]; 24 hour treatment): 1.19 µM | IC50 ([1]; 48 hour treatment): 0.88 µM | IC50 ([1]; 72 hour treatment): 0.84 µM | IC50 ([2]; MCF-7, 24 hour treatment): 19.1 µM | IC50 ([2]; MCF-7, 48 hour treatment): 9.32 µM | IC50 ([2]; MCF-7, 72 hour treatment): 9.99 µM | IC50 ([3]; K562, 24 hour treatment): 1.26 µM | IC50 ([3]; K562, 48 hour treatment): 0.92 µM | IC50 ([4]; DU145, 24 hour treatment): 6.79 µM | IC50 ([4]; DU145, 48 hour treatment): 6.31 µM | IC50 ([4]; DU145, 72 hour treatment): 5.88 µM | IC50 ([5]; HL60, 24 hour treatment): 3.19 µM | IC50 ([5]; HL60, 48 hour treatment): 3.6 µM | IC50 ([5]; HL60, 72 hour treatment): 2.68 µM | IC50 ([6]; 5637, 24 hour treatment): 9.39 µM | IC50 ([6]; 5637, 48 hour treatment): 5.95 µM | IC50 ([6]; 5637, 72 hour treatment): 3.52 µM | IC50 ([7]; U937, 24 hour treatment): 0.44 µM | IC50 ([7]; U937, 48 hour treatment): 0.6 µM | IC50 ([7]; U937, 72 hour treatment): 0.87 µM | % cell G1 ([8]; 24 hour, dose 0.5 μM): 43.66% | % cell G2/M ([8]; 24 hour, dose 0.5 μM): 11.05% | % cell S ([8]; 24 hour, dose 0.5 μM): 28.15% | % cell Sub G1 ([8]; 24 hour, dose 0.5 μM): 9.41% | % cell G1 ([8]; 24 hour, dose 1 μM): 36.17% | % cell G2/M ([8]; 24 hour, dose 1 μM): 8.82% | % cell S ([8]; 24 hour, dose 1 μM): 18.98% | % cell Sub G1 ([8]; 24 hour, dose 1 μM): 21.02% | % cell G1 ([8]; 24 hour, dose 2 μM): 23.45% | % cell G2/M ([8]; 24 hour, dose 2 μM): 2.64% | % cell S ([8]; 24 hour, dose 2 μM): 9.14% | % cell Sub G1 ([8]; 24 hour, dose 2 μM, listed as 5-azacytidine 5′-elaidate): 33.6% | % cell Sub G1 ([8]; 24 hour, dose 2 μM, listed as cp): 33.59% | % cell G1 ([8]; 48 hour, dose 0.5 μM): 34.79% | % cell G2/M ([8]; 48 hour, dose 0.5 μM): 2.53% | % cell S ([8]; 48 hour, dose 0.5 μM): 42.96% | % cell Sub G1 ([8]; 48 hour, dose 0.5 μM): 15.14% | % cell G1 ([8]; 48 hour, dose 1 μM): 28.07% | % cell G2/M ([8]; 48 hour, dose 1 μM): 17.91% | % cell S ([8]; 48 hour, dose 1 μM): 30.06% | % cell Sub G1 ([8]; 48 hour, dose 1 μM): 14.34% | % cell G1 ([8]; 48 hour, dose 2 μM): 22.51% | % cell G2/M ([8]; 48 hour, dose 2 μM): 7.78% | % cell S ([8]; 48 hour, dose 2 μM): 15.62% | % cell Sub G1 ([8]; 48 hour, dose 2 μM): 24.34% | % cell G1 ([8]; 72 hour, dose 0.5 μM): 38.72% | % cell G2/M ([8]; 72 hour, dose 0.5 μM): 18.82% | % cell S ([8]; 72 hour, dose 0.5 μM): 29.18% | % cell Sub G1 ([8]; 72 hour, dose 0.5 μM): 10.54% | % cell G1 ([8]; 72 hour, dose 1 μM): 40.67% | % cell G2/M ([8]; 72 hour, dose 1 μM): 18.26% | % cell S ([8]; 72 hour, dose 1 μM): 28.77% | % cell Sub G1 ([8]; 72 hour, dose 1 μM): 10.75% | Ct ER β [9]: 32.97 | delta [9]: 7.06 | Delta delta ([9]; versus untreated): −2.40
